Laboratory results taken from publication PMC3542062, “A phenyl-thiadiazolylidene-amine derivative ejects zinc from retroviral nucleocapsid zinc fingers and inactivates HIV virions” (Retrovirology, 2012).

Legend:
CMV = experiment: Activity against replication of non-retroviruses; type: cell-based
HIV-2 ROD [1] = experiment: GFP-assay in Jurkat A72 (LTR-GFP) cells; type: cell-based; settings: Human immunodeficiency virus 2, 72 h, 3 days after infection
BCF-Dioum subtype G = experiment: Virucidal assay on clinical isolates, titration on PBMCs; type: cell-based, HIV-1; settings: 125 μM, 1 h 37°C, untreated control 25781
HIV-1 virus particles = experiment: Virion-associated p24 of pre-treated, compound-cleared virus (ELISA); settings: compound-cleared HIV-1 virus stock
NL4.3/WT = experiment: GFP-assay in Jurkat A72 (LTR-GFP) cells; type: cell-based, HIV-1; settings: Human immunodeficiency virus 1, Jurkat, 72 h, read-out: EC50 NL4.3/WT
HSV = experiment: Activity against replication of non-retroviruses; type: cell-based
HIV-1 IIIB [2] = experiment: Virucidal assay: virus pre-incubated with compound, diluted, titrated on MT-4 cells; settings: for CCID50/ml HIV-1 IIIB: no drug 1 × 10^6
HIV-2 ROD [3] = experiment: as above; settings: for CCID50/ml HIV-2 ROD: no drug 5.4 × 10^6
HIV-1 IIIB [4] = experiment: MT-4/MTT-assay, protection against virus-induced cytopathic effect; type: cell-based; settings: MT-4 cells, MTT, 5 days after infection
HIV-1 IIIB [5] = experiment: GFP-assay in Jurkat A72 (LTR-GFP) cells; type: cell-based; settings: Human immunodeficiency virus 1, IIIB, 72 h, 3 days after infection
VZV = experiment: Activity against replication of non-retroviruses; type: cell-based
UG270 subtype D = experiment: Virucidal assay on clinical isolates, titration on PBMCs; type: cell-based, HIV-1; settings: 125 μM, 1 h 37°C, untreated control 25781
AZTR HIV-1 strain = experiment: GFP-assay in Jurkat A72 (LTR-GFP) cells; type: cell-based; settings: Human immunodeficiency virus 1, Jurkat, 72 h, read-out: EC50 AZTR
VSV = type: cell-based
[6] = test system: HIV-1 NL4.3 transmission from Raji/DC-SIGN cells to C8166 cells; experiment: Transmission of DC-SIGN-captured pretreated virus to C8166 cells (procedure B); type: cell-based; settings: Human immunodeficiency virus 1; Raji/DC-SIGN exposed to compound-pretreated (1 h) HIV, compound removed, cocultured with C8166
NC(11-55) [7] = experiment: Zinc ejection monitored by supramolecular mass spectrometry; type: biochemical, HIV-1; settings: non-denaturing MS, Vc = 20 V, Pi = 6 mbar
Method: Purity and homogeneity of NC(11-55) were verified by mass analysis in denaturing conditions. In these acidic conditions, zinc is released from the peptide; and a molecular weight of 5137. 7 ± 0.4 Da was measured, in agreement with the expected mass of the zinc-free NC form (5137.9 Da). […] This is in contrast to the earlier discovered DIBA zinc ejectors for which the Zn ejection is accompanied by the formation of covalent complexes formed between the compound and Cys residues of Zn-depleted NCp7 [25].
Figure 5 Zinc ejection as monitored by mass spectrometry. […] Under non-denaturing conditions (Vc = 20 V, Psi = 6 mbar), the mass measured for NCp7(11-55) alone is 5264.0 Da corresponding to the NC peptide complexed with two zinc ions.
Before mass spectrometry (MS) analysis, NC(11-55) was dissolved and buffer exchanged with 50 mM ammonium acetate pH 7.0 using 4 cycles of microcentrifuge size exclusion filtering (Vivaspin 500 5kD, Sartorius Stedim biotech, Aubagne, France) and peptide concentration was measured by a Bradford assay. […]
Analyses under non-denaturing conditions were carried out after careful optimization of instrumental settings to avoid dissociation of noncovalent bonds and obtain sensible detection of protein/zinc complexation states. […] Peak intensities were used to estimate the ratios of the different ions detected.

ETH2220 subtype C = experiment: Virucidal assay on clinical isolates, titration on PBMCs; type: cell-based, HIV-1; settings: 125 μM, 1 h 37°C, untreated control 64969
RSV = experiment: Activity against replication of non-retroviruses; type: cell-based
NC(11-55) [8] = experiment: Inhibition of NC(11-55)-induced destabilization of cTAR (Rh6G-cTAR-Dabcyl fluorescence); type: biochemical, HIV-1
Method: The NCp7-induced destabilization of cTAR can be sensitively monitored by using the doubly labeled Rh6G-5^′-cTAR-3^′-Dabcyl derivative.
(A) Emission spectra of Rh6G-cTAR-Dabcyl (0.1 μM) recorded in the absence (circle) or in the presence of NCp7(11-55) (1 μM) (square). […] Excitation wavelength was 520 nm. […] Excitation wavelength was 520 nm.
An extinction coefficient at 260 nm of 521,910 M^–1 x cm^–1 was used for cTAR. All experiments were performed at 20°C in 25 mM Tris–HCl, pH 7.5, 30 mM NaCl, and 0.2 mM MgCl2[28].
Absorption spectra were recorded on a Cary 400 spectrophotometer. Fluorescence spectra were recorded at 20°C on a Fluorolog spectrofluorometer (Horiba, Jobin-Yvon), equipped with a thermostated cell compartment. Excitation wavelength was 295 nm and 520 nm, for NC(11-55) and Rh6G-5^′-cTAR-3^′-Dabcyl, respectively. The spectra were corrected for dilution and buffer fluorescence. The protein spectra were additionally corrected for screening effects due to the zinc ejecting agent, using:

[9] = virus incubated 1 h 37°C with 0.2 μM
[10] = virus incubated 1 h 37°C with 1 μM
[11] = virus incubated 1 h 37°C with 5 μM
[12] = virus incubated 1 h 37°C with 25 μM
[13] = virus incubated 1 h 37°C with 625 μM
[14] = virus incubated at 26, 130 and 650 μM, 1 h 37°C
[15] = 10 μM compound, 1 μM NC(11-55), 0.1 μM cTAR

In the case of Cn1sc(=N)nc1-c1ccccc1 [WDO-217, 2-methyl-3-phenyl-2H-[1,2,4]thiadiazol-5-ylideneamine], the “activity against replication of CMV” value (CMV) is reported as “inactive”, the EC50 (HIV-2 ROD [1]) is reported as 1040 ± 300 nM and the “CCID50/ml BCF-Dioum subtype G” value (BCF-Dioum subtype G) is reported as 2558 CCID50/ml. For the same compound, the “virus-associated p24 core protein after treatment” value (HIV-1 virus particles) was “did not affect”, the EC50 (NL4.3/WT) was 900 ± 50 nM and the “activity against replication of HSV” value (HSV) was “inactive”. For the same compound, the “CCID50/ml HIV-1 IIIB” value (HIV-1 IIIB [2]; [9]) was 5.4 × 10^6 CCID50/ml, the “CCID50/ml HIV-1 IIIB” value (HIV-1 IIIB [2]; [10]) was 1.6 × 10^6 CCID50/ml and the “CCID50/ml HIV-1 IIIB” value (HIV-1 IIIB [2]; [11]) was 1 × 10^6 CCID50/ml. The “CCID50/ml HIV-1 IIIB” value (HIV-1 IIIB [2]; [12]) was 0 CCID50/ml, the “CCID50/ml HIV-1 IIIB” value (HIV-1 IIIB [2]; [13]) was 0 CCID50/ml and the “Infectivity of pre-incubated HIV-1 virus” value (HIV-1 IIIB [2]; [14]) was “no longer able to infect cells”. For the same compound, the “CCID50/ml HIV-2 ROD” value (HIV-2 ROD [3]; [9]) was 1.6 × 10^6 CCID50/ml, the “CCID50/ml HIV-2 ROD” value (HIV-2 ROD [3]; [10]) was 1 × 10^6 CCID50/ml and the “CCID50/ml HIV-2 ROD” value (HIV-2 ROD [3]; [11]) was 2.1 × 10^6 CCID50/ml. The “CCID50/ml HIV-2 ROD” value (HIV-2 ROD [3]; [12]) was 0 CCID50/ml, the “CCID50/ml HIV-2 ROD” value (HIV-2 ROD [3]; [13]) was 0 CCID50/ml and the “Infectivity of pre-incubated HIV-2 virus” value (HIV-2 ROD [3]; [14]) was “no longer able to infect cells”. For the same compound, the EC50 (HIV-1 IIIB [4]; Human immunodeficiency virus 1, IIIB, MT4, 120 h) was 5000 ± 3000 nM, the EC50 (HIV-1 IIIB [4]) was 7900 ± 3300 nM and the EC50 (HIV-1 IIIB [5]) was 1040 ± 200 nM. For the same compound, the “activity against replication of VZV” value (VZV) was “inactive”, the “CCID50/ml UG270 subtype D” value (UG270 subtype D) was 6446 CCID50/ml and the EC50 (AZTR HIV-1 strain) was 1500 ± 600 nM. For the same compound, the “activity against replication of VSV” value (VSV) was “inactive”, the IC50 [6] was 2200 ± 1000 nM and the “covalent complex between NC(11-55) and compound” value (NC(11-55) [7]) was “no covalent complex”. For the same compound, the “CCID50/ml ETH2220 subtype C” value (ETH2220 subtype C) was 2558 CCID50/ml, the “activity against replication of RSV” value (RSV) was “inactive” and the “time to 50% inhibition of NC(11-55)-induced cTAR destabilization” value (NC(11-55) [8]; [15]) was “less than 5 minutes”. For the same compound, the “time to complete inhibition of NC(11-55)-induced cTAR destabilization” value (NC(11-55) [8]; [15]) was 50 min and the “NC(11-55) ability to destabilize cTAR after preincubation” value (NC(11-55) [8]; molar ratio 10:1 compound to NC(11-55)) was “full loss”.
